The results in this text go back to ChEMBL document CHEMBL5352484, “Discovery of a potent and long-acting Xenopus GLP-1-based GLP-1/glucagon/Y2 receptor triple agonist” (Eur J Med Chem, 2023).

Test [1] has as its target Glucagon-like peptide 1 receptor (Homo sapiens, UniProt P43220). Put plainly: Agonist activity at GLP-1R (unknown origin) expressed in HEK293 cells assessed as cAMP accumulation incubated for 30 mins by HTRF method. Type of test: functional, cell-based.
The target of the next test is Glucagon receptor (Homo sapiens, UniProt P47871). In words: Agonist activity at GCGR (unknown origin) expressed in HEK293 cells assessed as cAMP accumulation incubated for 30 mins by HTRF method. In kind it is functional, cell-based.
Test [2] has as its system Mus musculus. In words: Hypoglycemic activity in ICR mouse assessed as decrease in blood glucose level at 30 nmol/kg, ip pretreated for 30 mins followed by glucose addition and measured upto 120 mins in presence of 60 nmol/kg Lys7(C16-gammaGlu)PYY3-36 by OGTT. In kind it is functional, organism-based. The settings on record: time <= 150.0 min.
Test [3] deals with Mus musculus. Put plainly: Hypoglycemic activity in ICR mouse assessed as decrease in blood glucose level at 30 nmol/kg, ip pretreated for 30 mins followed by glucose addition and measured upto 120 mins by OGTT. Type of test: functional, organism-based. The note with it: time <= 150.0 min.
In test [4] the test system is Mus musculus. Put plainly: Antiobesity activity in ICR mouse assessed as reduction in food intake at […], sc measured upto 24 hrs. Type of test: functional. The arrangement: scale not given: the % may be the effect or the level left.
In test [5] the test system is Mus musculus. In words: Antiobesity activity in ICR mouse assessed as reduction in food intake at […], sc measured upto 24 hrs in presence of Lys7(C16-gammaGlu)PYY3-36. In kind it is functional. The arrangement: scale not given: the % may be the effect or the level left.
Test [6] deals with Mus musculus. In words: Anti-obesity activity in C57BL/6J mouse model of high-fat diet induced obesity assessed as decrease in body weight at 30 nmol/kg, sc administered twice daily for 7 days. The arrangement: scale not given: the % may be the effect or the level left. The settings on record: time 7 day. In kind it is functional.
Test [7] concerns Mus musculus. Put plainly: Anti-obesity activity in C57BL/6J mouse model of high-fat diet induced obesity assessed as decrease in body weight at 30 nmol/kg, sc administered twice daily for 7 days in presence of 60 nmol/kg Lys7(C16-gammaGlu)PYY3-36. In kind it is functional. The arrangement: scale not given: the % may be the effect or the level left. The settings on record: time 7 day.

Test [8] has as its system Mus musculus. Put plainly: Anti-obesity activity in C57BL/6J mouse model of high-fat diet induced obesity assessed as decrease in food intake at 30 nmol/kg, sc administered twice daily for 7 days in presence of 60 nmol/kg Lys7(C16-gammaGlu)PYY3-36. In kind it is functional, organism-based. The settings on record: time 7.0 day.
For test [9], the system named is Mus musculus. In words: Anti-diabetic activity in C57BL/6J mouse model of high-fat diet induced obesity assessed as improved in glucose tolerance at 30 nmol/kg, sc administered twice daily for 7 days in presence of 60 nmol/kg Lys7(C16-gammaGlu)PYY3-36. Type of test: functional, organism-based. The settings on record: time 7.0 day.
For test [10], the system named is Mus musculus. In words: Hypoglycemic activity in ICR mouse assessed as reduction in glucose excursion at 30 nmol/kg, ip measured upto 120 mins. In kind it is functional, organism-based.
Test [11] deals with Mus musculus. Put plainly: Hypoglycemic activity in ICR mouse at 30 nmol/kg, ip pretreated with Jant-4 for 30 mins prior to compound addition for 30 mins followed by glucose addition and measured upto 120 mins by OGTT. The note with it: time <= 150.0 min. Type of test: functional, organism-based.
For test [12], the system named is Mus musculus. In words: Hypoglycemic activity in ICR mouse at 30 nmol/kg, ip pretreated with JNJ-31020028 for 30 mins prior to compound addition for 30 mins followed by glucose addition and measured upto 120 mins by OGTT. In kind it is functional, organism-based. The settings on record: time <= 150.0 min.
The subject of test [13] is Mus musculus. In words: Anorexigenic effect in ICR mouse assessed as inhibition of food intake at 30 nmol/kg, ip pretreated with Jant-4 for 30 mins followed by compound addition for 30 mins. In kind it is functional, organism-based.
In test [14] the test system is Mus musculus. Put plainly: Reduction in saccharin consumption in ip dosed ICR mouse assessed as reduction in saccharin preference ratio pretreated for 40 mins with saccharin followed by compound addition. Type of test: functional, organism-based.
Test [15] relates to Mus musculus. Put plainly: Antiobesity activity in ICR mouse assessed as reduction in body weight at 30 nmol/kg, sc administered twice daily. In kind it is functional. The arrangement: scale not given: the % may be the effect or the level left.
The test system of test [16] is Mus musculus. Put plainly: Antiobesity activity in C57BL/6J mouse assessed as reduction in body weight at 10 nmol/kg, sc after 21 days. In kind it is functional. Details: scale not given: the % may be the effect or the level left. The note with it: time 21 day.
The test system of test [17] is Mus musculus. Put plainly: Reduction in serum ALT level in C57BL/6J mouse at 30 nmol/kg, sc administered for 21 days. Type of test: functional, organism-based. The settings on record: time 21.0 day.
The subject of test [18] is Mus musculus. Put plainly: Reduction in serum AST level in C57BL/6J mouse at 30 nmol/kg, sc administered for 21 days. In kind it is functional, organism-based. The note with it: time 21.0 day.
Test [19] has as its system Mus musculus. Put plainly: Reduction in liver TG level in C57BL/6J mouse at 30 nmol/kg, sc administered for 21 days. Type of test: functional, organism-based. The settings on record: time 21.0 day.
Test [20] relates to Mus musculus. In words: Reduction in liver TC level in C57BL/6J mouse at 30 nmol/kg, sc administered for 21 days. Type of test: functional, organism-based. The settings on record: time 21.0 day.

The source made the active and inactive calls. No cut-off for these calls is given here.

Glucagon-like peptide 1 receptor, sequence (P43220 whole entry): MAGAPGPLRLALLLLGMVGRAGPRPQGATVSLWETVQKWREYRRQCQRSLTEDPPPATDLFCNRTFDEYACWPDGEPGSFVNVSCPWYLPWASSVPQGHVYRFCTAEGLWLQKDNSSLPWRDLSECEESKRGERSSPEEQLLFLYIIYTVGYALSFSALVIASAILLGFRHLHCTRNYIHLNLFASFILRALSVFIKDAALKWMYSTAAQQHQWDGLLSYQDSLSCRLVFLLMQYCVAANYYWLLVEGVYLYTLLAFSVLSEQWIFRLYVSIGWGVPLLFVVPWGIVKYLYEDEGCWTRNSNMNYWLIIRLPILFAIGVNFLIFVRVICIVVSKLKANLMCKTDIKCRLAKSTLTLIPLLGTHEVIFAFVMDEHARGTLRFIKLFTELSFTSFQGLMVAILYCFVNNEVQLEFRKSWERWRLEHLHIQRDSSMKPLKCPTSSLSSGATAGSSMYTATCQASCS
Glucagon receptor, sequence (P47871 whole entry): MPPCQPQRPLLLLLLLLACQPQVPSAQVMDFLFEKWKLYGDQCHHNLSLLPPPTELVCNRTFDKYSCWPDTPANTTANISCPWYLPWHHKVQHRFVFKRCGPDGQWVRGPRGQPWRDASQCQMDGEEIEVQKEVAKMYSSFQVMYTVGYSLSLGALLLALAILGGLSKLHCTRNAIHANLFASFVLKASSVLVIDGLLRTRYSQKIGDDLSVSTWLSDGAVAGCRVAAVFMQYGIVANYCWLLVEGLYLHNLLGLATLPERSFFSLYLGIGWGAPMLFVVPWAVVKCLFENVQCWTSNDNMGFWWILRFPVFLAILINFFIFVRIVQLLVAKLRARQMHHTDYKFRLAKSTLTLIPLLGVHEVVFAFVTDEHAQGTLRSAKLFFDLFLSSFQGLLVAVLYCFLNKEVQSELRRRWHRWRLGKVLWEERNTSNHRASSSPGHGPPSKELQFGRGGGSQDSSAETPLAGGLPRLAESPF

The EC50 is the concentration that produces a half-maximal response. On to `CC[C@H](C)[C@H](NC(=O)[C@H](Cc1ccccc1)NC(=O)[C@H](CC(=O)O)NC(=O)[C@H](CCC(N)=O)NC(=O)[C@H](C)NC(=O)[C@H](CCCNC(=N)N)NC(=O)[C@H](CCCNC(=N)N)NC(=O)[C@H](CO)NC(=O)[C@H](CC(=O)O)NC(=O)[C@H](CCCCN)NC(=O)[C@H](CCC(N)=O)NC(=O)[C@H](CCCCN)NC(=O)[C@H](CO)NC(=O)[C@H](CC(C)C)NC(=O)[C@H](CC(=O)O)NC(=O)[C@H](CO)NC(=O)[C@@H](NC(=O)[C@H](Cc1ccccc1)NC(=O)[C@@H](NC(=O)CNC(=O)[C@H](CCC(N)=O)NC(=O)[C@@H](CO)NC(=O)[C@@H](N)Cc1c[nH]cn1)[C@@H](C)O)[C@@H](C)O)C(=O)N[C@@H](CCC(=O)O)C(=O)N[C@@H](Cc1c[nH]c2ccccc12)C(=O)N[C@@H](CC(C)C)C(=O)N[C@@H](CCCCN)C(=O)N[C@@H](CC(N)=O)C(=O)NCC(=O)NCC(=O)N1CCC[C@H]1C(=O)N[C@@H](CO)C(=O)N[C@@H](CO)C(=O)NCC(=O)N[C@@H](C)C(=O)N1CCC[C@H]1C(=O)N1CCC[C@H]1C(=O)N1CCC[C@H]1C(=O)N[C@@H](CO)C(=O)N[C@@H](CS)C(N)=O`, for which the values for the EC50 (in test [1]; on Glucagon receptor) were 0.087 nM and 0.42 nM, respectively.

As to `CCCCCCCCCCCCCCCC(=O)N[C@@H](CCC(=O)NCCCC[C@H](NC(=O)[C@H](Cc1ccc(O)cc1)NC(=O)[C@H](CCCCN)NC(=O)[C@H](CO)NC(=O)[C@@H](NC(=O)[C@H](CC(=O)O)NC(=O)[C@H](CC(N)=O)NC(=O)[C@@H](NC(=O)[C@H](Cc1ccc(O)cc1)NC(=O)[C@@H](NC(=O)CNC(=O)[C@H](CCC(N)=O)NC(=O)[C@@H](CO)NC(=O)[C@@H](N)Cc1c[nH]cn1)[C@@H](C)O)[C@@H](C)O)C(C)C)C(=O)N[C@@H](CC(=O)O)C(=O)N[C@@H](CO)C(=O)N[C@@H](CCCNC(=N)N)C(=O)N[C@@H](CCCNC(=N)N)C(=O)N[C@@H](C)C(=O)N[C@@H](CCC(N)=O)C(=O)N[C@@H](CC(=O)O)C(=O)N[C@@H](Cc1ccccc1)C(=O)N[C@H](C(=O)N[C@@H](CCC(=O)O)C(=O)N[C@@H](Cc1c[nH]c2ccccc12)C(=O)N[C@@H](CC(C)C)C(=O)N[C@@H](CCCCN)C(=O)N[C@@H](CC(N)=O)C(=O)NCC(=O)NCC(=O)N1CCC[C@H]1C(=O)N[C@@H](CO)C(=O)N[C@@H](CO)C(=O)NCC(=O)N[C@@H](C)C(=O)N1CCC[C@H]1C(=O)N1CCC[C@H]1C(=O)N1CCC[C@H]1C(=O)N[C@@H](CO)C(N)=O)[C@@H](C)CC)C(=O)O`, the outcome in the test with Mus musculus [2], in the test with Mus musculus [3], in the test on Mus musculus [8], in the test on Mus musculus [9], with Mus musculus [10] and with Mus musculus [17] was Active. For the same molecule, the outcome in the test with Mus musculus [18], in the test with Mus musculus [19] and with Mus musculus [20] was Active. Moreover, the Activity with Mus musculus [4] was 35%; with Mus musculus [5] it was 66%; in the test on Mus musculus [6] it was 16.6%; with Mus musculus [7] it was 28.5%; in the test with Mus musculus [14], “Dose-Dependent Effect”; in the test with Mus musculus [15], 15.6%. Further, the Activity in the test on Mus musculus [16] is reported as 27%. The outcome in the test on Mus musculus [11], with Mus musculus [12] and in the test with Mus musculus [13] was inactive.

With `CC[C@H](C)[C@H](NC(=O)[C@H](Cc1ccccc1)NC(=O)[C@H](CC(=O)O)NC(=O)[C@H](CCC(N)=O)NC(=O)[C@H](C)NC(=O)[C@H](CCCNC(=N)N)NC(=O)[C@H](CCCNC(=N)N)NC(=O)[C@H](CO)NC(=O)[C@H](CC(=O)O)NC(=O)[C@H](CCCCN)NC(=O)[C@H](Cc1ccc(O)cc1)NC(=O)[C@H](CCCCN)NC(=O)[C@H](CO)NC(=O)[C@@H](NC(=O)[C@H](CC(=O)O)NC(=O)[C@H](CC(N)=O)NC(=O)[C@@H](NC(=O)[C@H](Cc1ccc(O)cc1)NC(=O)[C@@H](NC(=O)CNC(=O)[C@H](CCC(N)=O)NC(=O)[C@@H](CO)NC(=O)[C@@H](N)Cc1c[nH]cn1)[C@@H](C)O)[C@@H](C)O)C(C)C)C(=O)N[C@@H](CCC(=O)O)C(=O)N[C@@H](Cc1c[nH]c2ccccc12)C(=O)N[C@@H](CC(C)C)C(=O)N[C@@H](CCCCN)C(=O)N[C@@H](CC(N)=O)C(=O)NCC(=O)NCC(=O)N1CCC[C@H]1C(=O)N[C@@H](CO)C(=O)N[C@@H](CO)C(=O)NCC(=O)N[C@@H](C)C(=O)N1CCC[C@H]1C(=O)N1CCC[C@H]1C(=O)N1CCC[C@H]1C(=O)N[C@@H](CO)C(=O)N[C@@H](CS)C(N)=O`, the EC50 in test [1] came to 0.048 nM; at Glucagon receptor it was 0.19 nM.
